According to US20200038513A1, “MODULATORS OF FAK PROTEOLYSIS AND ASSOCIATED METHODS OF USE” (ARVINAS OPERATIONS, INC., priority 2018, published 2020):
Read-outs that look alike come from different tables or passages of the source.

Key:
[1] = Pharmacokinetics of intraperitoneal or intravenous injection in CD1 mice; assay type: in vivo; conditions: for concentration at 0.25 h / concentration at 0.5 h / concentration at 1 h / concentration at 2 h / concentration at 4 h / concentration at 8 h / concentration at 24 h / AUC(0-t) / half-life / concentration at 0.033 h / concentration at 0.083 h: male, CD1, mouse, plasma
Method: The pharmacokinetics of exemplary compounds 103, 107, 100, 101, and 102 was examined for intraperitoneal and intravenous administration. The desired serial concentrations of working solutions were achieved by diluting stock solution (1 mg/mL in DMSO) of analyte with methanol. In particular, 20 μL of working solutions (1, 2, 5, 10, 50, 100, 500, 1000, 2000 ng/mL) were added to 20 μL of the blank CD1 mice plasma to achieve calibration standards of 1-2000 ng/mL (1, 2, 5, 10, 50, 100, 500, 1000, 2000 ng/mL) in a total volume of 40 μL. Dose of IV and IP were diluted by 1000 fold and 10000 with methanol, 20 μL of the diluted dose solutions were added to 20 μL of the blank CD1 mice plasma to achieve dose samples. Next, 40 μL standards and 40 μL dose samples were added to 20 μL of IS (100 ng/mL) and 200 μL of acetonitrile for precipitating protein respectively. Then the samples were vortexed for 30 seconds. After centrifugation at 4 degree Celsius, 4000 rpm for 15 minutes, the supernatant was diluted 3 times with water. 10 μL of the diluted supernatant was injected into the LC/MS/MS system for quantitative analysis.
Exemplary compounds 103, 107, 100, 101, and 102 were administered intravenously (5 second injection of 10% HP-b-CD and 40 mM sodium acetate and 40 mM NaCl in water, pH4.5) or intraperitoneally (5% EtOH and 5% Solutol HS15 in D5W(ESD-2)) to 6-8 week old male CD1 mice (3 mice per treatment group for a total of 12 mice) at the time points indicated below in Table 7. The mice had free access to food and water.
Dorsal metatarsal vein samples (30 μL), except that the final sample was acquired via a heart puncture, were taken from the mice at the same the administration time points as shown in Table 7.

PPB = assay type: in vitro ADME; conditions: plasma
[2] = IV 1.0 mg/kg, CD1 mice plasma, 24 h
[3] = ip, 10 mg/kg, IP 10 mg/kg, CD1 mice plasma, read-out: Conc. (ng/mL) Mouse 1
[4] = ip, 10 mg/kg, IP 10 mg/kg, CD1 mice plasma, read-out: Conc. (ng/mL) Mouse 2
[5] = ip, 10 mg/kg, IP 10 mg/kg, CD1 mice plasma, read-out: Conc. (ng/mL) Mouse 3
[6] = ip, 10 mg/kg, IP 10 mg/kg, CD1 mice plasma, read-out: Mean
[7] = iv, 1 mg/kg, IV 1.0 mg/kg, CD1 mice plasma, read-out: Conc. (ng/mL) Mouse 1
[8] = iv, 1 mg/kg, IV 1.0 mg/kg, CD1 mice plasma, read-out: Conc. (ng/mL) Mouse 2
[9] = iv, 1 mg/kg, IV 1.0 mg/kg, CD1 mice plasma, read-out: Conc. (ng/mL) Mouse 3
[10] = iv, 1 mg/kg, IV 1.0 mg/kg, CD1 mice plasma, read-out: Mean

Structure (SMILES): Cc1ncsc1-c1ccc(CNC(=O)[C@@H]2C[C@@H](O)CN2C(=O)[C@@H](NC(=O)CCOCCCOc2ccc(Nc3ncc(C(F)(F)F)c(NCc4cccc(N(C)S(C)(=O)=O)c4)n3)cc2)C(C)(C)C)cc1 [Compound 103, (2S,4R)-1-((S)-3,3-dimethyl-2-(3-(3-(4-((4-((3-(N-methylmethylsulfonamido)benzyl)amino)-5-(trifluoromethyl)pyrimidin-2-yl)amino)phenoxy)propoxy)propanamido)butanoyl)-4-hydroxy-N-(4-(4-methylthiazol-5-yl)benzyl)pyrrolidine-2-carboxamide]
- Conc. (ng/mL) Mouse 2 ([1]; IP 10 mg/kg, CD1 mice plasma, 24 h): BLOQ
- Conc. (ng/mL) Mouse 1 [1, 2]: BLOQ
- Conc. (ng/mL) Mouse 2 [1, 2]: BLOQ
- Conc. (ng/mL) Mouse 3 [1, 2]: BLOQ
- concentration at 0.25 h [1, 3]: 877 ng/mL
- concentration at 0.25 h [1, 4]: 494 ng/mL
- concentration at 0.25 h [1, 5]: 562 ng/mL
- concentration at 0.25 h [1, 6]: 645 ng/mL
- concentration at 0.5 h [1, 3]: 842 ng/mL
- concentration at 0.5 h [1, 4]: 639 ng/mL
- concentration at 0.5 h [1, 5]: 608 ng/mL
- concentration at 0.5 h [1, 6]: 696 ng/mL
- concentration at 1 h [1, 3]: 2010 ng/mL
- concentration at 1 h [1, 4]: 2460 ng/mL
- concentration at 1 h [1, 5]: 1230 ng/mL
- concentration at 1 h [1, 6]: 1900 ng/mL
- concentration at 2 h [1, 3]: 2130 ng/mL
- concentration at 2 h [1, 4]: 3300 ng/mL
- concentration at 2 h [1, 5]: 826 ng/mL
- concentration at 2 h [1, 6]: 2090 ng/mL
- concentration at 4 h [1, 3]: 1260 ng/mL
- concentration at 4 h [1, 4]: 1210 ng/mL
- concentration at 4 h [1, 5]: 768 ng/mL
- concentration at 4 h [1, 6]: 1080 ng/mL
- concentration at 8 h [1, 3]: 321 ng/mL
- concentration at 8 h [1, 4]: 68.5 ng/mL
- concentration at 8 h [1, 5]: 306 ng/mL
- concentration at 8 h [1, 6]: 232 ng/mL
- concentration at 24 h ([1]; ip, 10 mg/kg, IP 10 mg/kg, CD1 mice plasma, 24 h, read-out: Conc. (ng/mL) Mouse 1): 0.824 ng/mL
- concentration at 24 h ([1]; ip, 10 mg/kg, IP 10 mg/kg, CD1 mice plasma, 24 h, read-out: Conc. (ng/mL) Mouse 3): 4.5 ng/mL
- concentration at 24 h ([1]; ip, 10 mg/kg, IP 10 mg/kg, CD1 mice plasma, 24 h, read-out: Mean): 2.66 ng/mL
- AUC(0-t) ([1]; ip, 10 mg/kg, read-out: AUClast (h * ng/mL) IP): 10400 ng·h/mL
- half-life ([1]; ip, 10 mg/kg, read-out: T ½ (h) IP (converted)): 1.87 h
- concentration at 0.033 h [1, 7]: 4370 ng/mL
- concentration at 0.033 h [1, 8]: 3940 ng/mL
- concentration at 0.033 h [1, 9]: 4020 ng/mL
- concentration at 0.033 h [1, 10]: 4110 ng/mL
- concentration at 0.083 h [1, 7]: 1660 ng/mL
- concentration at 0.083 h [1, 8]: 1730 ng/mL
- concentration at 0.083 h [1, 9]: 1820 ng/mL
- concentration at 0.083 h [1, 10]: 1740 ng/mL
- concentration at 0.25 h [1, 7]: 376 ng/mL
- concentration at 0.25 h [1, 8]: 382 ng/mL
- concentration at 0.25 h [1, 9]: 395 ng/mL
- concentration at 0.25 h [1, 10]: 384 ng/mL
- concentration at 0.5 h [1, 7]: 140 ng/mL
- concentration at 0.5 h [1, 8]: 132 ng/mL
- concentration at 0.5 h [1, 9]: 135 ng/mL
- concentration at 0.5 h [1, 10]: 136 ng/mL
- concentration at 1 h [1, 7]: 52.1 ng/mL
- concentration at 1 h [1, 8]: 58.8 ng/mL
- concentration at 1 h [1, 9]: 57.5 ng/mL
- concentration at 1 h [1, 10]: 56.2 ng/mL
- concentration at 2 h [1, 7]: 36.1 ng/mL
- concentration at 2 h [1, 8]: 27.7 ng/mL
- concentration at 2 h [1, 9]: 32.1 ng/mL
- concentration at 2 h [1, 10]: 32 ng/mL
- concentration at 4 h [1, 7]: 10.8 ng/mL
- concentration at 4 h [1, 8]: 12.9 ng/mL
- concentration at 4 h [1, 9]: 13 ng/mL
- concentration at 4 h [1, 10]: 12.3 ng/mL
- concentration at 8 h [1, 7]: 2.33 ng/mL
- concentration at 8 h [1, 8]: 8.35 ng/mL
- concentration at 8 h [1, 9]: 4.11 ng/mL
- concentration at 8 h [1, 10]: 4.93 ng/mL
- AUC(0-t) ([1]; iv, 1 mg/kg, read-out: AUClast (h * ng/mL) IV): 747 ng·h/mL
- half-life ([1]; iv, 1 mg/kg, read-out: T ½ (h) IV (converted)): 2.44 h
- fraction unbound (PPB): 0.0022
